Columns and labels:
Integrin alpha-V/beta-3 [1] = molecular target: T1, Integrin alpha-V/beta-3 (Homo sapiens, UniProt P05106+P06756); assay: Inhibition of HUVEC attachment to human fibrinogen
Integrin alpha-5/beta-1 = Integrin alpha-5/beta-1 (Homo sapiens, UniProt P05556+P08648); assay: Inhibition of HUVEC attachment to human fibronectin
Integrin alpha-V/beta-3 [2] = molecular target: T1, Integrin alpha-V/beta-3; assay: Inhibition of HUVEC attachment to human vitronectin

T1 sequence (P05106 27-788 limits assumed): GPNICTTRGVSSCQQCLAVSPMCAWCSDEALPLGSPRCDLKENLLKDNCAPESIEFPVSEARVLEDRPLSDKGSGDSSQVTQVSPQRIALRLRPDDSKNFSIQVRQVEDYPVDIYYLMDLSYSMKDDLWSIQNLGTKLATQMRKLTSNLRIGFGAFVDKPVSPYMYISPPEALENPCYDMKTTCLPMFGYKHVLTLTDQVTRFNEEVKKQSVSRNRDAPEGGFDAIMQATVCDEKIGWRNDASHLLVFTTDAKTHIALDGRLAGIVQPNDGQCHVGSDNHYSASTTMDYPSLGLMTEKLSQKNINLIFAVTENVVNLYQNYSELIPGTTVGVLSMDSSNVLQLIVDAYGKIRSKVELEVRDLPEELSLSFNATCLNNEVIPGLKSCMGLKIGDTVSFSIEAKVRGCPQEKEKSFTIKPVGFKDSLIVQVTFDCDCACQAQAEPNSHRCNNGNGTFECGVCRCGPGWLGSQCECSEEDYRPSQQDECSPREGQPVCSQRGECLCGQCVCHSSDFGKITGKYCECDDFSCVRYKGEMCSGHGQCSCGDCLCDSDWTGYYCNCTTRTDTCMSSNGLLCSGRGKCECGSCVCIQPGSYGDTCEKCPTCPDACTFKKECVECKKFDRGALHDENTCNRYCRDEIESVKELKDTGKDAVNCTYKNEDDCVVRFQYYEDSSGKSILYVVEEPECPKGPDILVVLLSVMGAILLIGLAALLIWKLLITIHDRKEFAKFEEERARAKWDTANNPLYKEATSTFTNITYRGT
T1 sequence (P06756 31-889 limits assumed): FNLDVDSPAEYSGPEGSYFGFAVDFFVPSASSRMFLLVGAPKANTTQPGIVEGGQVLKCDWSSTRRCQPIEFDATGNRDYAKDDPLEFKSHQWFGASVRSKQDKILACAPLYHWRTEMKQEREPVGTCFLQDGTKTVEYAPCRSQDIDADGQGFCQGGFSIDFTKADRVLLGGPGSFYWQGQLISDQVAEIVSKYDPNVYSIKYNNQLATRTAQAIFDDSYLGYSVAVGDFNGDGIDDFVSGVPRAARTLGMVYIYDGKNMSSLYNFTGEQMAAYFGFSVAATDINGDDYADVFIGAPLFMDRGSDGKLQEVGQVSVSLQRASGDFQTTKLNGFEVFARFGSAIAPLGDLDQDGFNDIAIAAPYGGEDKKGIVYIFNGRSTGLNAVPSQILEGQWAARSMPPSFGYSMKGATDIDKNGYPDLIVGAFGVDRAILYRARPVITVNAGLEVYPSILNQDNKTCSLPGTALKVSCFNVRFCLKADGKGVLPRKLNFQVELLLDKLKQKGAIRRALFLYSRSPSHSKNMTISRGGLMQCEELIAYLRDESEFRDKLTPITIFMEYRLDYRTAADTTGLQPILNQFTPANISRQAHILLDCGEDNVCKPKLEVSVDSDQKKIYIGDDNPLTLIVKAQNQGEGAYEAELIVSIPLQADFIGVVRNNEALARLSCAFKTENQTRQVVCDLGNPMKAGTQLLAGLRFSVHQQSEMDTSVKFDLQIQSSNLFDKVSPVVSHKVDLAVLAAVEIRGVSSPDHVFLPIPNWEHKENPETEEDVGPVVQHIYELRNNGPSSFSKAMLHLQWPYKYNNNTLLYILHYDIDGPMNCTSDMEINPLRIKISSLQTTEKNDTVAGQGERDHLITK
T1 sequence (P06756 891-1048 limits assumed): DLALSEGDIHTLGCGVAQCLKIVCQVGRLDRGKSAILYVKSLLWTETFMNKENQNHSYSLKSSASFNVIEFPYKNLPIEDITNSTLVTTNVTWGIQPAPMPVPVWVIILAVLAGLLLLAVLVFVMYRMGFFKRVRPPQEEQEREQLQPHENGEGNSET
Integrin alpha-5/beta-1, sequence (P05556 21-798 limits assumed): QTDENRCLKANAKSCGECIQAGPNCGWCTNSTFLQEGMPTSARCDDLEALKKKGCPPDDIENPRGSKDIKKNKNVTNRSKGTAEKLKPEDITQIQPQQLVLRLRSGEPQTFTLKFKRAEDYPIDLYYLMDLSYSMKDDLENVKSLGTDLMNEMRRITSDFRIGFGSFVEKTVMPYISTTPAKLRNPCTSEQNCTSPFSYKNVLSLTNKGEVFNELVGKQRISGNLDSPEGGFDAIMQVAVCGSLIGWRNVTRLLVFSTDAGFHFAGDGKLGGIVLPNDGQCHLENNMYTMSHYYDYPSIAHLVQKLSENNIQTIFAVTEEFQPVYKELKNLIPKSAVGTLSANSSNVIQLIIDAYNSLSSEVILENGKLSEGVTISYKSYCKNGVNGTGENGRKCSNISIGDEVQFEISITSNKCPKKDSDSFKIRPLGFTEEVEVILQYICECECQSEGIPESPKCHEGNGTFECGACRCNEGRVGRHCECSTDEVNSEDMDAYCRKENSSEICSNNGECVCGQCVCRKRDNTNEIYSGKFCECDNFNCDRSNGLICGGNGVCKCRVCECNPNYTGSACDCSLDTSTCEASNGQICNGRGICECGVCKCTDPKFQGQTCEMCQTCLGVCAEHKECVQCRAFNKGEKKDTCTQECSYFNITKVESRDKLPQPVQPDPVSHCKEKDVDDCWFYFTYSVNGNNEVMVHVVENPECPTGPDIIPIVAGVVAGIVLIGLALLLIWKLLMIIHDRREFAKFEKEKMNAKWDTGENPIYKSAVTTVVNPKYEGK
Integrin alpha-5/beta-1, sequence (P08648 42-894 limits assumed): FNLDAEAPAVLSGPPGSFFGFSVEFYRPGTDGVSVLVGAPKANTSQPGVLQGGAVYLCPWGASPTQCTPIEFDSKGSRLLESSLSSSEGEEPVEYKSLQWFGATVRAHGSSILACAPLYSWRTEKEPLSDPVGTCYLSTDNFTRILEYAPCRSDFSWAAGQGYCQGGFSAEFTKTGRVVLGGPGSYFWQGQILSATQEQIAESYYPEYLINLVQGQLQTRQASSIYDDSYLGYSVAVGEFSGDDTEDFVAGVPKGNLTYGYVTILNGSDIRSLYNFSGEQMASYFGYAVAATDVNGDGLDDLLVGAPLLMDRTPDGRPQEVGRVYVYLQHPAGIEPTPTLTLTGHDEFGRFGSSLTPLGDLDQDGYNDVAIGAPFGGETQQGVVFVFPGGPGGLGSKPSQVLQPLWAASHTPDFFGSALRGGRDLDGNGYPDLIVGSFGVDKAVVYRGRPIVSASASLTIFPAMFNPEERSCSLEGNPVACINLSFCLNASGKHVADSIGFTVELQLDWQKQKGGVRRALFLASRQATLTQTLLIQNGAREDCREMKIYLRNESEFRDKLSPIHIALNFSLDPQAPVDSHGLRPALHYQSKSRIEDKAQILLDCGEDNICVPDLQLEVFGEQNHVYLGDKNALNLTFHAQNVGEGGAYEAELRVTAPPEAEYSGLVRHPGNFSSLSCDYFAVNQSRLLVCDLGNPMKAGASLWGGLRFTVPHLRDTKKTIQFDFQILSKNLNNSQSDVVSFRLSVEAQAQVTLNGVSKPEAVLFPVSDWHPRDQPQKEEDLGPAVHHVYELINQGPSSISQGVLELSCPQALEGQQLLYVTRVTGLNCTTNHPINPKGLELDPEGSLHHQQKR
Integrin alpha-5/beta-1, sequence (P08648 895-1049 limits assumed): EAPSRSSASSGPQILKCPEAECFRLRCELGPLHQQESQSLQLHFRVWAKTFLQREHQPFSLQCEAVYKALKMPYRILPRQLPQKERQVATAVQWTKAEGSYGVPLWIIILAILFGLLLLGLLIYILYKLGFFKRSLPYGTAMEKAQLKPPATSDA

CCCCS(=O)(=O)N[C@@H](Cc1ccc(OCCCCC2CCNCC2)cc1)C(=O)O [TIROFIBAN]
IC50 (Integrin alpha-V/beta-3 [1]): 260 µM | IC50 (Integrin alpha-5/beta-1): > 300 µM | IC50 (Integrin alpha-V/beta-3 [2]): 100 µM

From ChEMBL document CHEMBL1126316, “Non-peptide fibrinogen receptor antagonists. 1. Discovery and design of exosite inhibitors” (J Med Chem, 1992)
